Source: patent US8030511B2, “Method for the manufacture of therapeutic compounds and compositions, compounds and compositions produced therewith, and their use” (priority 2006, dated 2011)

Key:
[1] = Verification of NO donating capacity (1% sodium iodide in hot acetic acid, chemiluminescence); format: physicochemical
Description: Samples of eluents from the HPLC system were collected and analyzed for NO/nitrite content by injection into a reaction vessel containing 1% sodium iodide in hot acetic acid. Released nitric oxide was purged into a chemiluminescence analyzer system optimized for detection of nitric oxide by chemiluminescence reaction with ozone and determination of NO+ozone-generated excited NO2 product through counting of emitted photons.

[2] = Cederqvist et al., 1994; cited from earlier work
[3] = Intravenous infusion of NO dissolved in liquid medium in L-NAME pre-treated rabbit; format: in vivo
Protocol: Experiments were approved by the local ethics committee on animal experimentation. A male New Zealand white rabbit was anesthetised, prepared and examined as in the protocol presented in Example 2. The rabbit was pre-treated with L-NAME (30 mg kg^−1) and received one infusion with NO-gas dissolved in normal saline and one with NO-gas dissolved in lipid emulsion ([…]®, Fresenius Kabi) through the catheter in the jugular vein without carrier flow. The infusion rate was for both liquids 0.5 ml kg^−1 min^−1. There was a recovery period between the two infusions for about 200 min.
The infusion liquids were created the same way. First the liquid was de-aerated for 20 min, in a gas-tight glass chamber with a rubber membrane with an inert gas; in this case helium gas, but nitrogen, argon etc could also be used. After this no oxygen were allowed to enter the liquid throughout the following procedure. The liquid was then purged with pure NO of a few minutes. The liquid was then collected through the rubber membrane in a gas-tight syringe with needle and from this syringe infused by means of syringe pump (864 Syringe Pump, Univentor LTD., Zejtun, Malta) in the jugular vein catheter.

[4] = HPLC of commercial organic nitrites diluted in deoxygenated water versus NO-saturated water; format: physicochemical; settings: for size of HPLC peak (UV max 225 nm), dilution in de-aerated NO saturated solutions: Novapak C8 or CN column
Protocol: Analysis of reaction mixtures and commercial organic nitrites and nitrates was made by high performance liquid chromatography (HPLC) using reverse phase chromatography on C8, C18 or CN columns (Waters Inc. NOVAPAK™ 4 μm particle size 8×100 mm radial compression columns) by means of two LDC Constametric pumps delivering a constant total flow of 1 ml per min, controlled by a computerized gradient control system generating a linear gradient of 0-100% methanol (elution solvent B) in 33 min, starting 1 min after injecting sample in the aqueous initial elution solvent (solvent A) which contained 5 mM ammonium formiate at pH 6. Separation of eluted compounds was determined by an LDC Spectromonitor variable UV monitor set at 210 nm, followed by a Pharmacia Wavescan wavelength scanning detector producing UV scans between 190 and 370 nm at 4 s intervals which were stored on a computer and analyzed after each HPLC run. The output from the LDC Spectromonitor was continuously recorded on a strip chart recorder.
HPLC: On all three Novapak columns and on the Thermo column a single peak of product, from the reaction between propanol and NO gas, eluted at a gradient concentration of 70-80% methanol. In the NOVAPAK C18 system this corresponded to an elution time of approximately 28 min (FIG. 12, panel C). […] When a standard sample of propyl nitrite (Karl Industries Inc., Aurora, Ohio, USA) diluted in a gas-type cylinder in deoxygenated (10 min He purging) water at 1:1000 was injected, a small peak at 28 min was obtained (FIG. 12, panel A), having an identical UV absorbance max at 225 nm. […] Similar results were obtained on the C8 and CN columns, a single retained peak was obtained from the reaction mixture consisting of propanol and NO, although at somewhat shorter retention times, compared with the C18 system.
Commercial samples of ethyl nitrite, butyl nitrite, and isobutyl nitrite (Sigma-Aldrich) were diluted anaerobically as above and injected onto the HPLC system, using either the Novapak C8 or CN column. Peaks with UV absorbance maxima of approximately 225 nm were obtained in all the samples, but at different retention times corresponding to the expected differences judged from the lipophilic chain length of the compounds. All these peaks were larger if the dilution of the organonitrite had been done in de-aerated NO saturated solutions. The respective peaks with UV max at 225 nm coincided with single similar peaks obtained by treating the corresponding alcohol (ethanol, butanol, isobutanol) with NO gas. This was taken as evidence that the corresponding organic mononitrite had formed.

[5] = tested on: venous gas embolism; experiment: Treatment of venous gas embolism in an animal with inhibited NO production; format: in vivo
Description: The beneficial effects may be induction of vasodilation in the pulmonary vasculature, inhibition of aggregation of trombocytes and/or minor vasodilation in the whole or parts of the systemic circulation, for example in the coronary circulation.

[6] = before 30 mg kg^−1 throughout 10 min

SMILES: O=[N+]([O-])OCC(CO[N+](=O)[O-])O[N+](=O)[O-] [Nitroglycerin, glyceryl trinitrate]
- release of NO by mild reduction treatment [1]: did not yield a release of NO
- generation of NO in vivo [2]: generate NO

SMILES: COC(=O)[C@@H](N)CCCNC(=N)N[N+](=O)[O-] [L-NAME, N^G-nitro-L-arginine methyl ester]
- exhaled nitric oxide after L-NAME infusion ([3]; 30 mg kg^−1 throughout 10 min): < 1 ppb
- heart rate (HR) after L-NAME infusion ([3]; 30 mg kg^−1 throughout 10 min): 258 beats min^−1
- systemic mean arterial blood pressure (MAP) after L-NAME infusion ([3]; 30 mg kg^−1 throughout 10 min): 128 cmH2O
- End-tidal CO2 and the relevant blood gas parameters ([3]; L-NAME 30 mg kg^−1 throughout 10 min): normal
- exhaled nitric oxide before L-NAME infusion [3, 6]: 19 ppb
- heart rate (HR) before L-NAME infusion [3, 6]: 274 beats min^−1
- systemic mean arterial blood pressure (MAP) before L-NAME infusion [3, 6]: 103 cmH2O

SMILES: CCON=O [ethyl nitrite]
- size of HPLC peak (UV max 225 nm), dilution in de-aerated NO saturated solutions [4]: larger
- generation of NO in vivo [2]: generate NO

SMILES: CC(C)CO[N+](=O)[O-] [isobutyl nitrate]
- generation of NO in vivo [2]: generate NO

SMILES: CC(C)CON=O [isobutyl nitrite]
- size of HPLC peak (UV max 225 nm), dilution in de-aerated NO saturated solutions [4]: larger
- generation of NO in vivo [2]: generate NO

SMILES: CCCON=O [propyl nitrite]
- size of 28 min HPLC peak, dilution in water saturated with NO gas vs deoxygenated water ([4]; dilution 1:1000, Novapak C18): 5-10 times

SMILES: CC(C)CCON=O [isoamyl nitrite]
- generation of NO in vivo [2]: generate NO

SMILES: [N]=O [inhaled nitric oxide, nitric oxide]
- treatment of venous gas embolism [5]: impossible to treat

SMILES: CCCCON=O [butyl nitrite]
- size of HPLC peak (UV max 225 nm), dilution in de-aerated NO saturated solutions [4]: larger
- generation of NO in vivo [2]: generate NO
